We go through three molecules from patent US20190274300A1, “PRESERVATIVE SOLUTION FOR LIVE CELLS OR COMPOSITION CONTAINING LIVE CELLS” (TERUMO KABUSHIKI KAISHA, priority 2016, published 2019).

The test system of the test is sheet-shaped human skeletal myoblast cell culture. Description: Cell survival rate confirmation test: sheet-shaped cell culture kept refrigerated in preservative solution, PI staining, flow cytometry. The test is classed as cell-based. The following applies: 2° C. to 8° C. The method, then:
The sheet-shaped cell cultures were prepared using skeletal myoblast cells (with fibroblast cells contained therein) prepared from a human skeletal muscle by a usual or known method. A cell mixture of human skeletal myoblast cells and human fibroblast cells suspended in a 20% human serum-containing DMEM/F12 medium (Thermo Fisher Scientific Inc.) was seeded at 3.7×10^6 cells/well on a temperature-responsive culture dish (UpCell® 12 well Multi-well, CellSeed Inc.), and was then subjected to the sheet-formation cultivation at 37° C. under 5% CO2 for 12 to 26 hours. After the sheet-formation cultivation, the medium was removed, 700 μL of HBSS (+) (Thermo Fisher Scientific Inc.) which was chilled to 4° C. was added, and then the resultant was left to stand for 10 minutes. Then, gentle pipetting was conducted such as to detach the sheet-shaped cell culture completely.
After the sheet-shaped cell culture was completely detached, HBSS (+) was removed, and a fresh supply of room-temperature HBSS (+) was added to conduct rinsing. Such a washing step was repeated four times.
The sheet-shaped cell culture left to stand under the refrigerated conditions in (1) above was put to measurement of cell survival rate. After the sheet-shaped cell culture left to stand in the preservative solution for a predetermined period was dissociated with a trypsin-like protease, the cells were dispensed into a FACS tube to be 3.5×10^5 cells, followed by centrifugation, and the supernatant was discarded. To the resultant was added 3 ml of 0.5% BAS-containing PBS solution, and, after rinsing the cells by vortex, centrifugation was conducted, the supernatant was removed, and 500 μL of a propidium iodide (PI, Becton Dickinson) prepared to a final concentration of 0.6 μg/mL by use of a 0.5% BSA-containing PBS solution was added and mixed. Immediately after the mixing, the mixture was put to reaction at room temperature under a light shielding condition for approximately five minutes. After the reaction, a 0.5% BSA-containing PBS solution was added, the cells were rinsed by vortex, followed by centrifugation, then the supernatant was removed, 500 μL of a 0.5% BSA-containing PBS solution was added, and the resultant was put to an analysis. The analysis was conducted using a flow cytometer (Becton Dickinson), and the proportion of PI-unstained cells contained in the whole cells admixed with PI was measured. […]
As a control, a DMEM medium (Thermo Fisher Scientific Inc.) was used.
A general note: In flow cytometry, cells or beads pass a laser one at a time.

In the case of tocopherol [vitamin E], the cell survival rate entry (10 μM vitamin E in physiological saline solution, three days) was “approximately 65%” and the cell survival rate entry (100 μM vitamin E in physiological saline solution, three days) is given as “approximately 65%”.

On to `O=C1O[C@H]([C@@H](O)CO)C(O)=C1O` [vitamin C, ascorbic acid], for which the cell survival rate entry (0.2 mM vitamin C in physiological saline solution, three days) was “approximately 63%” and the cell survival rate entry (2 mM vitamin C in physiological saline solution, three days) was “approximately 85%”.

In the case of `CC1=NN(c2ccccc2)C(=O)C1` [edaravone, 3-methyl-1-phenyl-2-pyrazolin-5-one], the cell survival rate entry is reported as “approximately 95%” (1 μM edaravone in physiological saline solution, five days) and “approximately 97%” (10 μM edaravone in physiological saline solution, five days). Also, the “cell survival rate as compared to the case of no addition of edaravone” value (1 μM or 10 μM edaravone in physiological saline solution, five days) was “increased”. Moreover, the “lowering in the number of live cells from three days to seven days of preservation, compared to edaravone-nonadded HBSS (+)” value (100 μM edaravone in HBSS (+)) is recorded as “restrained”. Further, the “cell survival rate as compared to HBSS (+) not admixed with edaravone” value (100 μM edaravone in HBSS (+), three days to seven days) is “higher cell survival rate”.
